Experimental data published in patent publication US20110178104A1, “Anti-Heparin Compounds” (POLYMEDIX INC., priority 2010, published 2011).
pEC50: −log10 of the molar value. Values joined by “and” are separate entries in the source; they are usually repeats but may differ in a detail not shown here. Equal values may be shown once.

Key:
enoxaparin = experiment: FXa amidolytic assay (Example 10), enoxaparin; details: read-out: Enox FXa EC50; enoxaparin 0.1 ug/ml; human antithrombin, bovine Factor Xa
Method: (§1) Two μl of test agent are added (range between 0.01 and 23 ug/ml) and incubated for 5 minutes at 23° C. Bovine Factor Xa was added to a final concentration of 0.636 nkat/mL and incubated for a further 10 minutes at 23° C.

fondaparinux = experiment: FXa amidolytic assay (Example 10), fondaparinux; details: read-out: Fondap FXa EC50; fondaparinux 0.02 μg/mL; human antithrombin, bovine Factor Xa
Method: as §1

Unfractionated heparin = experiment: aPTT clotting assay, UFH 0.4 U/mL in plasma (Example 10); format: biochemical; details: unfractionated heparin 0.4 U/mL in plasma; aPTT clotting
Method: aPTT clotting Assay: Unfractionated heparin was mixed with plasma at a final concentration of 0.4 U/mL (or concentration which increases aPTT time to between 120 and 300 seconds). […] The ACL Elite Hemostasis analyzer (Beckman Coulter™) was used to add aPTT reagent (HemosIL SynthASil) to supplemented plasma. Clotting was initiated by addition of CaCl2 and time to clot was recorded.

tinzaparin = experiment: FXa amidolytic assay (Example 10), tinzaparin; details: read-out: Tinzap FXa EC50; tinzaparin 0.1 ug/ml; human antithrombin, bovine Factor Xa
Method: as §1

SMILES	pEC50 (enoxaparin)	pEC50 (fondaparinux)	pEC50 (Unfractionated heparin)	pEC50 (tinzaparin)
COc1ccc(NC(=O)[C@H](CCCNC(N)=O)NC(=O)c2cc(NC(=O)[C@H](CCCCN)NC(=O)c3cc(NC(=O)[C@H](CCCCN)NC(=O)c4cc(NC(=O)[C@@H](N)CCCCN)ccc4OC)ccc3OC)ccc2OC)cc1C(N)=O [Compound 259]	6.57	5.54	5.80	6.74
COc1ccc(NC(=O)[C@H](CCCCN)NC(=O)c2cc(NC(=O)[C@H](CCCCN)NC(=O)c3cc(NC(=O)[C@H](CCCCN)NC(=O)c4cc(NC(=O)[C@@H](N)CCCCN)ccc4OC)ccc3OC)ccc2OC)cc1C(=O)NCC(=O)O [Compound 260]	6.40 and 6.55	5.29 and 5.40	5.78 and 5.85	6.61 and 6.67
COc1ccc(NC(=O)[C@H](CCCCN)NC(=O)c2cc(NC(=O)[C@H](CCCCN)NC(=O)c3cc(NC(=O)[C@H](CCCCN)NC(=O)c4cc(NC(=O)[C@@H](N)CCCCN)ccc4OC)ccc3OC)ccc2OC)cc1C(=O)N[C@@H](C)C(=O)O [Compound 262]	6.46	5.25	5.90	6.67
COc1ccc(NC(=O)[C@H](CCCCN)NC(=O)c2cc(NC(=O)[C@@H](N)CCCCN)ccc2OC)cc1C(=O)N[C@@H](CCCCN)C(=O)Nc1ccc(OC)c(C(=O)N[C@@H](CCCCN)C(=O)Nc2ccc(OC)c(C(=O)N[C@H](Cc3ccccc3)C(=O)O)c2)c1 [Compound 264]	6.14	< 5.00	5.86	6.44
COc1ccc(NC(=O)[C@H](CCCCN)NC(=O)c2cc(NC(=O)[C@@H](N)CCCCN)ccc2OC)cc1C(=O)N[C@@H](CCCCN)C(=O)Nc1ccc(OC)c(C(=O)N[C@@H](CCCCN)C(=O)Nc2ccc(OC)c(C(=O)N[C@H](C(=O)O)C(C)C)c2)c1 [Compound 267]	6.27	5.16	5.78	6.50
COc1ccc(NC(=O)[C@H](CCCCN)NC(=O)c2cc(NC(=O)[C@@H](N)CCCCN)ccc2OC)cc1C(=O)N[C@@H](CCCCN)C(=O)Nc1ccc(SC)c(C(=O)N[C@@H](CCCCN)C(=O)Nc2ccc(SC)c(C(N)=O)c2)c1 [Compound 268]	< 5.30	< 5.00	< 5.00	< 5.30
COc1ccc(NC(=O)[C@H](CCCCN)NC(=O)c2cc(NC(=O)[C@H](CCCCN)NC(=O)c3cc(NC(=O)[C@@H](N)CCCCN)ccc3OC)ccc2OC)cc1C(=O)N[C@@H](CCCCN)C(=O)Nc1ccc(OCC(=O)O)c(C(N)=O)c1 [Compound 269]	6.61	5.29	5.75	6.78
COc1ccc(NC(=O)[C@H](CCCCN)NC(=O)c2cc(NC(=O)[C@H](CCCCN)NC(=O)c3cc(NC(=O)[C@H](CCCCN)NC(=O)c4cc(NC(=O)[C@@H](N)CCCCN)ccc4OC)ccc3OC)ccc2OCC(=O)O)cc1C(N)=O [Compound 270]	6.27	5.39	5.90	6.46
COc1ccc(NC(=O)[C@H](CCCCN)NC(=O)c2cc(NC(=O)[C@H](CCCCN)NC(=O)c3cc(NC(=O)[C@H](CCCCN)NC(=O)c4cc(NC(=O)[C@@H](N)CCCCN)ccc4OC)ccc3OCC(=O)O)ccc2OC)cc1C(N)=O [Compound 271]	6.66	5.51	5.79	6.87
COc1ccc(NC(=O)[C@H](CCCCN)NC(=O)c2cc(NC(=O)[C@H](CCCCN)NC(=O)c3cc(NC(=O)[C@H](CCCCN)NC(=O)c4cc(NC(=O)[C@@H](N)CCCCN)ccc4OCC(=O)O)ccc3OC)ccc2OC)cc1C(N)=O [Compound 272]	6.27	5.11	5.51	6.62
COc1ccc(NC(=O)[C@H](CCCCN)NC(=O)c2cc(NC(=O)[C@H](CCCCN)NC(=O)c3cc(NC(=O)[C@H](CCCCN)NC(=O)c4cc(NC(=O)[C@@H](N)CCCCN)ccc4OC)ccc3OC)ccc2OC)cc1C(=O)N[C@@H](CCCNC(N)=O)C(=O)O [Compound 273]	6.50	5.42	5.81	6.69
COc1ccc(NC(=O)[C@H](CCCCN)NC(=O)c2cc(NC(=O)[C@H](CCCCN)NC(=O)c3cc(NC(=O)[C@H](CCCCN)NC(=O)c4cc(NC(=O)[C@@H](N)CCCCN)ccc4OC)ccc3OC)ccc2OC)cc1C(=O)NCCCCCC(=O)O [Compound 274]	6.25	5.15	5.79	6.52
COc1ccc(NC(=O)[C@H](CCCCN)NC(=O)c2cc(NC(=O)[C@H](CCCCN)NC(=O)c3cc(NC(=O)[C@H](CCCCN)NC(=O)c4cc(NC(=O)[C@@H](N)CCCCN)ccc4OC)ccc3OC)ccc2OC)cc1C(=O)N[C@@H](CCC(=O)O)C(=O)O [Compound 276]	6.20	5.29	5.63	6.44
COc1ccc(NC(=O)[C@H](CCCCN)NC(=O)c2cc(NC(=O)[C@@H](N)CCCCN)ccc2OC)cc1C(=O)N[C@@H](CCCCN)C(=O)Nc1ccc(OC)c(C(=O)N[C@@H](CCCCN)C(=O)Nc2ccc(OC)c(C(=O)N[C@H](C)C(=O)O)c2)c1 [Compound 277]	6.24	4.97	5.81	6.55
COc1ccc(NC(=O)[C@@H](CCCNC(=N)N)NC(=O)c2cc(NC(=O)[C@@H](CCCNC(=N)N)NC(=O)c3cc(NC(=O)[C@@H](CCCNC(=N)N)NC(=O)c4cc(NC(=O)[C@H](N)CCCNC(=N)N)ccc4OC)ccc3OC)ccc2OC)cc1C(=O)NCCC(=O)O [Compound 279]	6.81	6.11	5.71	6.87
COc1ccc(NC(=O)[C@H](N)CCCNC(=N)N)cc1C(=O)N[C@H](CCCNC(=N)N)C(=O)Nc1ccc(OC)c(C(=O)N[C@H](CCCNC(=N)N)C(=O)Nc2ccc(OC)c(C(=O)N[C@H](CCCNC(=N)N)C(=O)Nc3ccc(OCC(=O)O)c(C(N)=O)c3)c2)c1 [Compound 280]	6.88	6.24	5.79	6.92
COc1ccc(NC(=O)[C@@H](CCCNC(=N)N)NC(=O)c2cc(NC(=O)[C@@H](CCCNC(=N)N)NC(=O)c3cc(NC(=O)[C@@H](CCCNC(=N)N)NC(=O)c4cc(NC(=O)[C@H](N)CCCNC(=N)N)ccc4OC)ccc3OCC(=O)O)ccc2OC)cc1C(N)=O [Compound 282]	6.92	6.37	5.70	6.94
COc1ccc(NC(=O)[C@H](CCCNC(=N)N)NC(=O)c2cc(NC(=O)[C@H](CCCNC(=N)N)NC(=O)c3cc(NC(=O)[C@H](CCCNC(=N)N)NC(=O)c4cc(NC(=O)[C@@H](N)CCCNC(=N)N)ccc4OC)ccc3OC)ccc2OC)cc1C(=O)NCCC(=O)O [Compound 285]	6.77	6.10	5.67	6.82
COc1ccc(NC(=O)[C@H](CCCNC(=N)N)NC(=O)c2cc(NC(=O)[C@H](CCCNC(=N)N)NC(=O)c3cc(NC(=O)[C@@H](N)CCCNC(=N)N)ccc3OC)ccc2OC)cc1C(=O)N[C@@H](CCCNC(=N)N)C(=O)Nc1ccc(OCC(=O)O)c(C(N)=O)c1 [Compound 286]	6.93	6.28	5.72	6.98
COc1ccc(NC(=O)[C@H](CCCNC(=N)N)NC(=O)c2cc(NC(=O)[C@H](CCCNC(=N)N)NC(=O)c3cc(NC(=O)[C@H](CCCNC(=N)N)NC(=O)c4cc(NC(=O)[C@@H](N)CCCNC(=N)N)ccc4OCC(=O)O)ccc3OC)ccc2OC)cc1C(N)=O [Compound 289]	6.88	6.29	5.75	6.97
COc1ccc(NC(=O)[C@H](CCCCN)NC(=O)c2cc(NC(=O)[C@H](CCCCN)NC(=O)c3cc(NC(=O)[C@H](CCCCN)NC(=O)c4cc(NC(=O)[C@H](CCCCN)NC(=O)CC(=O)O)ccc4OC)ccc3OC)ccc2OC)cc1C(N)=O [Compound 290]	6.50	5.73	5.64	6.67
COc1ccc(NC(=O)[C@@H](CCCNC(=N)N)NC(=O)c2cc(NC(=O)[C@@H](CCCNC(=N)N)NC(=O)c3cc(NC(=O)[C@@H](CCCNC(=N)N)NC(=O)c4cc(NC(C)=O)ccc4OC)ccc3OC)ccc2OC)cc1C(=O)NCC(=O)O [Compound 294]	6.58	6.61	5.56	6.58
COc1ccc(NC(=O)[C@@H](CCCNC(=N)N)NC(=O)c2cc(NC(=O)[C@@H](CCCNC(=N)N)NC(=O)c3cc(NC(=O)[C@@H](CCCNC(=N)N)NC(=O)c4cc(NC(C)=O)ccc4OC)ccc3OC)ccc2OC)cc1C(=O)NCCC(=O)O [Compound 295]	6.51	6.41	5.40	6.49
COc1ccc(NC(=O)[C@@H](CCCNC(=N)N)NC(=O)c2cc(NC(=O)[C@@H](CCCNC(=N)N)NC(=O)c3cc(NC(=O)[C@@H](CCCNC(=N)N)NC(=O)c4cc(NC(C)=O)ccc4OC)ccc3OC)ccc2OC)cc1C(=O)N[C@@H](Cc1ccc(O)cc1)C(=O)O [Compound 296]	6.54	6.36	4.82	6.53
COc1ccc(NC(=O)[C@H](CCCNC(=N)N)NC(=O)c2cc(NC(=O)[C@H](CCCNC(=N)N)NC(=O)c3cc(NC(=O)[C@H](CCCNC(=N)N)NC(=O)c4cc(NC(C)=O)ccc4OC)ccc3OC)ccc2OC)cc1C(=O)NCC(=O)O [Compound 299]	6.61	6.58	5.54	6.62
COc1ccc(NC(=O)[C@H](CCCNC(=N)N)NC(=O)c2cc(NC(=O)[C@H](CCCNC(=N)N)NC(=O)c3cc(NC(=O)[C@H](CCCNC(=N)N)NC(=O)c4cc(NC(C)=O)ccc4OC)ccc3OC)ccc2OC)cc1C(=O)NCCC(=O)O [Compound 300]	6.57	6.34	5.46	6.51
